Source: US9657351B2, “MRNA-based gene expression for personalizing patient cancer therapy with an MDM2 antagonist” (Hoffmann-La Roche Inc., priority 2013, dated 2017)

Experiments:
Assay in all cases: COMPOUND A In Vitro Assay
Format in all cases: cell-based
A-375 = conditions: Homo sapiens
Description: (§1) To generate an MDM2 antagonist therapy predictive signature, the response of MDM2 antagonist therapy in vitro with gene expression profiling (FIG. 1) is combined. A bank of 287 human cancer cell lines, collectively termed the Cell Lines for Oncology/Chugai ACcumulative Tumour EncycLopedia (CELLO/CACTEL), representing a broad array of diverse human cancer tumor types are subject to evaluation using several high-throughput genomic technology platforms. The mutational status of nucleic acids from each cell line is determined by exome sequencing. Messenger RNA (mRNA) expression levels at baseline, prior to MDM2 antagonist therapy, are obtained via RNA sequencing. MDM2 antagonist therapy COMPOUND A, sometimes referred to herein as RG7112, responses are obtained by assays known to those skilled in the art such as RNA sequencing and microarray measurement using Gene Chip Human Genome U133 Plus 2.0 Array. The MDM2 therapy responses are obtained by high throughout screening assays. Depending on their responses to COMPOUND A these cell lines are classified as either sensitive, defined as IC50<=1, or resistant, defined as IC50>=10.
(§2) 281 cells are treated with MDM2 antagonists and the IC50 (therapy response) is generated. The cell lines span a broad range of tumor cell types of derivation.

ACHN = conditions: Homo sapiens
Description: as §1, §2

HARA = conditions: Homo sapiens, Lung, TP53 Mutant
Description: as §1, §2

HCC1954 = conditions: Homo sapiens, Breast, mammary gland, TP53 Mutant
Description: as §1, §2

HCC827 = conditions: Homo sapiens, Lung, TP53 Mutant
Description: as §1, §2

HMCB = conditions: Homo sapiens, Skin, TP53 Mutant
Description: as §1, §2

HPAF-II = conditions: Homo sapiens, Pancreas, TP53 Mutant
Description: as §1, §2

K-562 = conditions: Homo sapiens, K562, Bone marrow, TP53 Mutant
Description: as §1, §2

LS411N = conditions: Homo sapiens, LS-411N, Intestine, large, caecum, TP53 Mutant
Description: as §1, §2

MDA-MB-231 = conditions: Homo sapiens, Breast, mammary gland, TP53 Mutant
Description: as §1, §2

MG-63 = conditions: Homo sapiens, Bone, TP53 Mutant
Description: as §1, §2

NCI-H1703 = conditions: Homo sapiens, Lung, TP53 Mutant
Description: as §1, §2

NCI-H2023 = conditions: Homo sapiens, Lung, TP53 Mutant
Description: as §1, §2

NCI-H2029 = conditions: Homo sapiens, Lung, TP53 Mutant
Description: as §1, §2

NCI-H2081 = conditions: Homo sapiens, Lung, TP53 Wild type
Description: as §1, §2

NCI-H2347 = conditions: Homo sapiens, Lung, TP53 Wild type
Description: as §1, §2

NCI-H23 = conditions: Homo sapiens, Lung, TP53 NA
Description: as §1, §2

NCI-H345 = conditions: Homo sapiens, Lung, TP53 Mutant
Description: as §1, §2

NCI-H526 = conditions: Homo sapiens, Lung, TP53 Mutant
Description: as §1, §2

NCI-H716 = conditions: Homo sapiens, Intestine, large, caecum, TP53 Mutant
Description: as §1, §2

PANC-1 = conditions: Homo sapiens, Pancreas, TP53 Mutant
Description: as §1, §2

PC-13 = conditions: Homo sapiens, Lung, TP53 Mutant
Description: as §1, §2

PC-3 = conditions: Homo sapiens, Prostate, TP53 Mutant
Description: as §1, §2

RL95-2 = conditions: Homo sapiens, Uterus, endometrium, TP53 Mutant
Description: as §1, §2

RPMI-2650 = conditions: Homo sapiens
Description: as §1, §2

Ramos = conditions: Homo sapiens, Lymphocyte B, TP53 Wild type
Description: as §1, §2

SH-SY5Y = conditions: Homo sapiens
Description: as §1, §2

SJCRH30 = conditions: Homo sapiens, Muscle, TP53 Mutant
Description: as §1, §2

SK-ES-1 = conditions: Homo sapiens, SK-ES1, Bone, TP53 Mutant
Description: as §1, §2

SK-MEL-1 = conditions: Homo sapiens
Description: as §1, §2

SKM-1 = conditions: Homo sapiens, Lymphocyte, peripheral blood, TP53 Mutant
Description: as §1, §2

SNU-5 = conditions: Homo sapiens, Stomach, TP53 Mutant
Description: as §1, §2

SUM-44PE = conditions: Homo sapiens, Breast, TP53 Wild type
Description: as §1, §2

SW403 = conditions: Homo sapiens, SW-403, Intestine, large, colon, TP53 Mutant
Description: as §1, §2

TCCSUP = conditions: Homo sapiens, TCC-SUP, Urinary, bladder, TP53 Mutant
Description: as §1, §2

U-87 MG = conditions: Homo sapiens
Description: as §1, §2

Work on `CCOc1cc(C(C)(C)C)ccc1C1=N[C@@](C)(c2ccc(Cl)cc2)[C@@](C)(c2ccc(Cl)cc2)N1C(=O)N1CCN(CCCS(C)(=O)=O)CC1` [COMPOUND A] yielded an IC50 (A-375; A-375, A-375, Skin, TP53 Wild type) of 0.32 µM, an IC50 (A-375; A-375, A-375 cells) of 0.3 µM and an IC50 (ACHN; ACHN cells) of 0.3 µM. The IC50 (ACHN; Kidney, TP53 Wild type) was 0.29 µM, the IC50 (HARA) was 19 µM and the IC50 (HCC1954) was 12 µM. For the same compound, the IC50 (HCC827) was 8.9 µM, the IC50 (HMCB) was 15 µM and the IC50 (HPAF-II) was 10 µM. For the same compound, the IC50 (K-562) was 16 µM, the IC50 (LS411N) was 16 µM and the IC50 (MDA-MB-231) was 17 µM. For the same compound, the IC50 (MG-63) was 16 µM, the IC50 (NCI-H1703) was 9.1 µM and the IC50 (NCI-H2023) was 5.8 µM. For the same compound, the IC50 (NCI-H2029) was 5.8 µM, the IC50 (NCI-H2081) was 17 µM and the IC50 (NCI-H2347) was 9 µM. The IC50 (NCI-H23) was 10 µM, the IC50 (NCI-H345) was 17 µM and the IC50 (NCI-H526) was 16 µM. The IC50 (NCI-H716) was 13 µM, the IC50 (PANC-1) was 22 µM and the IC50 (PC-13) was 14 µM. It also gave an IC50 (PC-3) of 9 µM, an IC50 (RL95-2) of 9.3 µM and an IC50 (RPMI-2650; RPMI-2650, RPMI-2650, Nasal septum, TP53 Wild type) of 0.77 µM. It also gave an IC50 (RPMI-2650; RPMI-2650, RPMI-2650 cells) of 0.8 µM, an IC50 (Ramos) of 8.8 µM and an IC50 (SH-SY5Y; Brain, TP53 Wild type) of 0.75 µM. The IC50 (SH-SY5Y; SH-SY5Y cells) was 0.8 µM, the IC50 (SJCRH30) was 16 µM and the IC50 (SK-ES-1) was 25 µM. The IC50 (SK-MEL-1; SK-MEL-1, SK-MEL-1, Skin, TP53 Wild type) was 0.75 µM, the IC50 (SK-MEL-1; SK-MEL-1, SK-MEL-1 cells) was 0.8 µM and the IC50 (SKM-1) was 19 µM. For the same compound, the IC50 (SNU-5) was 16 µM, the IC50 (SUM-44PE) was 3 µM and the IC50 (SW403) was 6 µM. The IC50 (TCCSUP) was 16 µM, the IC50 (U-87 MG; Brain, TP53 Wild type) was 0.18 µM and the IC50 (U-87 MG; U-87 MG cells) was 0.2 µM.
